US12173088B2, “Anti-microbial peptides” (priority 2018, dated 2024)
≈ marks a conversion by molar mass, not a printed value. Where two headings read alike, the source gives them in different places. Peptide text beside a SMILES is read from it.

Assays:
S. aureus USA300 [1] = test: microbe, parasite or virus in culture; assay type: cell-based, Staphylococcus aureus
Procedure, shortened: (§1)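 Broth microdilution: log-phase cultures in tryptic soy broth diluted to OD600 0.001, exposed to two-fold diluted peptides at 37° C overnight, growth read at 630 nm. Medium effects on S. aureus USA300 tested with up to 200 mM NaCl, 2 mM CaCl2, 5-10% human serum, mouse plasma, fluids or tissue homogenate supernatants.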

S. aureus M838-17 (MRSA) = test: microbe, parasite or virus in culture; assay type: cell-based, Staphylococcus aureus; conditions: for MIC: read-out: MIC S. aureus M838-17 (MRSA)
Procedure, shortened: as §1

P. aeruginosa PAO1 = assay type: cell-based, Pseudomonas aeruginosa; conditions: PAO1
Procedure, shortened: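 Broth microdilution in tryptic soy broth: log-phase cultures (OD600 ≈0.5) diluted to OD600 0.001, given two-fold peptide dilutions, incubated overnight at 37° C. Growth read at 630 nm.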

S. aureus USA300 [2] = assay type: in vivo, Staphylococcus aureus
Description: Female C57BL/6 mice (6 weeks old) were purchased from Charles River. After environment adaptation, mice were induced neutropenic by administering two doses of cyclophosphamide on day 1 (150 mg/kg) and Day 4 (100 mg/kg). This cyclophosphamide administration was skipped for experiments using non-neutropenic mice (i.e., normal mice). On day 5, mice were infected with S. aureus USA300 LAC (˜2×10^6 CFU per mouse) via intraperitoneal injection (i.p.). For the treatment groups, mice were i.p. treated 2 hours post infection with peptides at a single dose of 5 mg/kg. Both positive and negative controls were included. At the end of the experiments, all animals were sacrificed according to institutional guidelines. Organs, including spleen, lung, kidney, and liver, were harvested, weighed, placed in sterile PBS and stored on ice. Harvested animal organs were subsequently homogenized using homogenizer (Omni, Kennesaw, GA). Proper dilutions, especially for untreated control groups, were made to get countable colonies. Blood agar plates were then incubated overnight at 37° C. The bacteria grown on plates were enumerated and plotted using the Graph pad Prism software.
Female C57BL/6 or Balb/c mice (6 weeks old) were purchased from Charles River. The mice were induced neutropenic by administering two doses of cyclophosphamide on day 1 (150 mg/kg) and Day 4 (100 mg/kg). On day 5, mice were infected with S. aureus USA300 (˜2×10^6 CFU per mouse) or K. pneumoniae E406-17 (˜5×10^5 CFU per mouse) via intraperitoneal injection (i.p.). For the treatment groups, mice were i.p. or intravenous (i.v.) treated 2 hours post infection with peptides at a single dose of 5, 10, or 15 mg/kg. Both positive and negative controls are used. At the end of the experiments, all animals were sacrificed according to institutional guidelines. […] The CFU of each mouse was plotted as an individual point and error bars represent the deviation within the experimental group. * p<0.05 ** p<0.01, ***p<0.001 and NS represents no significance (determined by Mann-Whitney test).

[3] = Cell viability assay (MTS); assay type: cell-based; conditions: human, read-out: LC50
Description: Peptides assessed for potential cytotoxicity using HepaRG (human hepatic progenitor cell line) and HEK-293 (human embryonic kidney) cells. Briefly, cells were seeded at a density of 1×10^4 per well in a tissue culture 96-well plate. For HepaRG cells, the working medium is prepared by adding the HepaRG Supplement to 100 ml/500 ml of Williams' Medium E and 1 ml/5 ml of GlutaMAX-1. For HEK-293 cells, DMEM supplemented with 10% fetal bovine serum (FBS) for both cell lines, and incubated at 37° C. in a 5% CO2 atmosphere for 24 hours. Culture medium was aspirated and replaced with fresh serum free media. Cells were exposed to different concentration of horine and verine for 1 hour at 37° C. in a 5% CO2 atmosphere. Post-incubation, the cells were washed and incubated with 100 μL of HepaRG specific/DMEM media containing 20 μL of MTS reagent for 2 hours at 37° C. Absorbance was read at 492 nm using a ChroMate® microplate reader (GMI).

[4] = system: S. aureus JE2 (wild type)
Description: (§2) The antibacterial activity of peptides was evaluated using a standard broth microdilution protocol with minor modifications (Mishra, et al. (2017) Acta Biomater., 49:316-328). In brief, logarithmic phase bacterial cultures (i.e., optical density at 600 nm≈0.5) were diluted to 0.001 OD and aliquoted 90 μL per well into a 96-well polystyrene microplate. Added 10 μL peptides per well with various concentrations, plates were incubated at 37° C., overnight. Post incubation the plates are read at 630 nm using a ChroMate® Microplate Reader (GMI). […] To study the influence of medium conditions on the antimicrobial activity of peptides against S. aureus USA300 at different pHs (6.8, 7.2, and 8.0), 150 mM sodium chloride (NaCl), 5-10% of human serum, mouse plasma, and peritoneal fluid were included into the assays.

S. aureus ΔmprF mutant = conditions: Table 17; strain ΔmprF
Description: as §2

[5] = HEK-293 (human embryonic kidney) cells, HEK293
[6] = HepaRG (human hepatic progenitor cell line)

Compound: CC(C)C[C@H](NC(=O)[C@H](CC(C)C)NC(=O)[C@H](CCCCN)NC(=O)[C@H](CC(C)C)NC(=O)CNC(=O)[C@H](CC(C)C)NC(=O)[C@H](CO)NC(=O)[C@H](CC(C)C)NC(=O)[C@H](CC(C)C)NC(=O)[C@H](CC(C)C)NC(=O)[C@H](CCCCN)NC(=O)[C@H](CC(C)C)NC(=O)CN)C(N)=O [DFT561, GLKLLLSLGLKLL] (H-GLKLLLSLGLKLL-NH2; N-terminus and C-terminus assumed)
- MIC (S. aureus USA300 [1]; USA300): 1.6 µM (≈ 2.21 µg/mL)
- MIC SA (S. aureus USA300) (S. aureus USA300 [1]; USA300): 1.6 µM (≈ 2.21 µg/mL)
- MIC (S. aureus USA300 [1]; USA300, pH 6.8): 3.1 µM (≈ 4.28 µg/mL)
- MIC (S. aureus USA300 [1]; USA300, pH 7.4): 1.6 µM (≈ 2.21 µg/mL)
- MIC (S. aureus USA300 [1]; USA300, pH 8): 1.6 µM (≈ 2.21 µg/mL)
- MIC (S. aureus M838-17 (MRSA); M838-17): 3.1 µM (≈ 4.28 µg/mL)
- MIC PA (P. aeruginosa PAO1) (P. aeruginosa PAO1): >25 µM
- Killing (S. aureus USA300 [2]; USA300, in vivo, 5 mg/kg): up to 90%

Compound: CC(C)C[C@H](NC(=O)[C@H](Cc1c[nH]c2ccccc12)NC(=O)[C@H](Cc1c[nH]c2ccccc12)NC(=O)[C@@H](N)Cc1c[nH]c2ccccc12)C(=O)N[C@@H](CCCNC(=N)N)C(=O)N[C@@H](CCCNC(=N)N)C(=O)N[C@@H](CCCNC(=N)N)C(=O)N[C@@H](Cc1c[nH]c2ccccc12)C(N)=O [Horine, WWWLRRRW] (H-WWWLRRRW-NH2; N-terminus and C-terminus assumed)
- MIC (S. aureus USA300 [1]; USA300, read-out: MIC S. aureus USA300 (MRSA)): 4 µM (≈ 5.37 µg/mL)
- MIC P. aeruginosa PAO1 (P. aeruginosa PAO1): 12.5 µM (≈ 16.8 µg/mL)
- CC50 at 1 hour [3, 5]: > 100 µM
- CC50 at 1 hour [3, 6]: > 80 µM
- MIC ([4]; JE2 (wild type)): 4 µM (≈ 5.37 µg/mL)
- MIC (S. aureus ΔmprF mutant): 2 µM (≈ 2.69 µg/mL)

Compound: CN[C@H](CC(C)C)C(=O)N[C@H]1C(=O)N[C@@H](CC(N)=O)C(=O)N[C@H]2C(=O)N[C@H]3C(=O)N[C@H](C(=O)N[C@H](C(=O)O)c4cc(O)cc(O)c4-c4cc3ccc4O)[C@H](O)c3ccc(c(Cl)c3)Oc3cc2cc(c3O[C@@H]2O[C@H](CO)[C@@H](O)[C@H](O)[C@H]2O[C@H]2C[C@](C)(N)[C@H](O)[C@H](C)O2)Oc2ccc(cc2Cl)[C@H]1O [Vancomycin]
- MIC (S. aureus USA300 [1]; Staphylococcus aureus, MRSA / USA300, read-out: MIC S. aureus USA300 (MRSA)): 1 µM (≈ 1.45 µg/mL)
- MIC (S. aureus M838-17 (MRSA); Staphylococcus aureus, MRSA): 0.78 µM (≈ 1.13 µg/mL)
- CFU decrease (S. aureus USA300 [2]; spleen, lung, kidney, liver, 10 mg/kg, positive control): 1-4 logs

Compound: CC(C)[C@H](NC(=O)[C@H](Cc1c[nH]c2ccccc12)NC(=O)[C@H](Cc1c[nH]c2ccccc12)NC(=O)[C@H](Cc1c[nH]c2ccccc12)NC(=O)[C@H](Cc1c[nH]c2ccccc12)NC(=O)[C@H](CCCNC(=N)N)NC(=O)[C@H](CCCNC(=N)N)NC(=O)[C@@H](N)CCCNC(=N)N)C(N)=O [Verine, RRRWWWWV] (H-RRRWWWWV-NH2; N-terminus and C-terminus assumed)
- MIC S. aureus USA300 (MRSA) (S. aureus USA300 [1]; Table 14): 2 to 4 µM
- MIC (S. aureus USA300 [1]; Table 17, strain USA300): 2 to 4 µM
- MIC S. aureus M838-17 (S. aureus M838-17 (MRSA); Table 12): 3.1 µM (≈ 4.12 µg/mL)
- CC50 at 1 hour [3, 5]: > 80 µM
- CC50 at 1 hour [3, 6]: > 80 µM
- MIC ([4]; Table 17, strain JE2): 4 µM (≈ 5.32 µg/mL)
- MIC (S. aureus ΔmprF mutant): 2 µM (≈ 2.66 µg/mL)
